Test results: patent US20110093959A1, “CRYPTOTIS PARVA SCREENING MODEL FOR ANTIEMETIC POTENTIAL” (priority 2008, published 2011)
Several values for one entry are separate records, joined by “and”; a condition that tells them apart may be missing. Equal entries are not always repeated.

Assays:
Assay type in all cases: in vivo, Cryptotis parva
[1] = tested on: Fos; experiment: Fos expression in the dorsal vagal complex resulting from CIS-induced vomiting; conditions: CIS 10 mg/kg i.p.; vs vehicle in place of CIS
Procedure: After the appropriate time period for acute or delayed phase vomiting, shrews were anesthetized with a lethal dose of pentobarbital (100 mg/kg) and perfused transcardially via blunted needle with a peristaltic pump. The shrew was perfused with ice cold 4% paraformaldehyde and 5% picric acid in pH 7.4, 0.1 M phosphate buffer (10 min). Brains were removed and stored in 30% sucrose in 0.1 M PB overnight, then embedded in blocks of 12% gelatin in 30% sucrose/PB. The blocks were postfixed for 3 hr in 2% paraformaldehyde/PB, then rinsed and immersed in 30% sucrose/PB until they sank (usually 1-2 hr). The brain block was cut sagittally on a freezing benchtop microtome (Leica) at 30 μm into 5 series, and stored in PB with 0.03% sodium azide.
Immunolabeling was accomplished by blocking a free-floating series with 10% normal horse serum (NHS) and 3% hydrogen peroxide in PB with 0.3% Tri-ton X-100 (TX) for 30 min. After rinsing in PB, tissue was put in sheep anti-Fos polyclonal antibody (Chemicon/Millipore, Temecula, Calif.; 1:600), with 5% NHS and 0.3% TX in PB, and incubated for about 42 hr at room temperature (RT) with gentle shaking. After rinsing in PB, the tissue was placed in biotinylated donkey anti-sheep IgG secondary antibody (Jackson Immunoresearch, West Grove, Pa.; 1:600) diluted in the same diluent described for the primary antibody, and the tissue incubated at RT with shaking for 75 min Tissue was then rinsed and incubated for 60 min in HRP-conjugated avidin-biotin complex (Vector Labs, Burlingame, Calif.; Vectastain kit diluted 1:2) in PB. Tissue was then rinsed twice in PB, then once in imidazole-acetate buffer (0.1 M, pH 7.4), then reacted for 6 min in 0.0006% hydrogen peroxide with 2% nickel ammonium sulfate-enhanced diaminobenzidine (DAB, 0.05% in 0.1 M imidazole-acetate buffer). All reagents for DAB processing were purchased from Sigma-Aldrich. […]

[2] = tested on: substance P tissue levels; experiment: Substance P tissue levels after CIS (EIA)
Procedure: These parameters were used in our neurochemical studies. Prior to experimentation, shrews were habituated to the laboratory environment as described for the behavioral studies. […] Subgroups of each treatment were sacrificed by rapid decapitation at either 2 hr or 33 hr post-injection.
Preliminary sample preparation procedures were carried out to optimize detection conditions in accord with our published methods (Darmani et al., 2008). […] As proteases can be also deactivated by heat, at basic pH and in the presence of EDTA (Darmani et al., 2008), the entire intestine was immediately immersed in a 70° C. preheated for 5 min, 5 ml solution of normal saline containing […] EDTA at pH 8.0 in accordance to published methods (Darmani et al., 2008). Each sample was allowed to cool down naturally to room temperature and then each gut was thrice flushed and rinsed with 5 ml of the cited saline solution. Then, each gut was dissected and the duodenum and jejunum samples were placed separately in test tubes containing 1 ml assay buffer. The dissected frontal cortex and brainstem samples were placed in different test tubes containing 0.5 ml assay buffer. Each sample was homogenized using a tissue tearer (Biospec) set at level 5 for 15 sec. The homogenates were then centrifuged at 17,000×g for 15 min at 4° C. The supernatants were obtained and saved at […] until used for the EIA detection of SP. Samples were analyzed for SP using the “Correlate-EIA” kit from Assay Designs using a microplate reader.
(§1) When a significant dose and exposure interaction was found, then simple effects at a particular emesis phase was tested via a one-way ANOVA. Neurochemical data were initially analyzed by two-way analysis of variance (ANOVA) with drug dose (0 mg/kg and 10 mg/kg) and exposure time (2 hr and 33 hr) as factors. […] For each statistical test, a P value of<0.05 was necessary to achieve statistical significance.

[3] = tested on: Least Shrew; experiment: CIS dose-response emesis, abdominal contractions and feeding, 47-hour observation; conditions: for total frequency of emesis vs vehicle control: immediate and delayed phases
Description: During the dark night phase a red light bulb was used to illuminate the shrew cage.
To habituate the shrews to the test environment, each animal was randomly selected and transferred to a 14×17×12 cm clean opaque plastic cage and was offered ten mealworms 1 hr prior to experimentation. […] Immediately following injection, each shrew was returned to its cage and their behaviors were videotaped for the next 47 hr. Animals were allowed ad libitum access to food (mealworms) and water. Food supply was maintained by making sure that two meal worms were always available in the cage throughout the observation time. Water was available throughout the experiment via small plastic container (1 cm in diameter and 0.5 cm in height) glued to the floor of each cage. The mean frequencies (±SEM) of vomitings (wet, dry and total) and abdominal contractions per hour and the number of mealworms eaten per hour, were scored separately from videotape recordings for each individual shrew for the entire observation period by a trained observer blind to the experimental conditions.
as §1

[4] = CIS 10 mg/kg, 2 hour (immediate phase)
[5] = CIS 10 mg/kg, 33 hour (delayed phase)
[6] = CIS 10 mg/kg, i.p., post exposure

N.N.[Cl][Pt][Cl] [CIS, cis-platinum(II)diamine dichloride]
Fos-IR in the DVC after CIS-induced vomiting [1]: numerous Fos-IR nuclei | duodenal SP tissue levels ([2]; CIS 10 mg/kg, 2 and 33 hour): failed to exhibit a significant effect | frontal cortex SP tissue levels vs vehicle ([2]; CIS 10 mg/kg, 2 hour): no significant difference | increase in brainstem SP levels vs vehicle [2, 4]: 1396% | increase in jejunal SP levels vs vehicle [2, 4]: 333% | decrease in frontal cortex SP levels vs vehicle ([2]; CIS 10 mg/kg, 33 hour): 39.2% | increase in brainstem SP levels vs vehicle [2, 5]: 956% | increase in jejunal SP levels vs vehicle [2, 5]: 226.5% | brainstem mean SP level lower at 33 hour than at 2 hour ([2]; CIS groups): 100% | peak immediate phase of emesis ([3]; CIS 5 mg/kg, i.p.): third hour | mealworms eaten vs control ([3]; CIS 5 mg/kg, first night): ate significantly more | time of maximal mean frequency of emesis, delayed phase [3, 6]: 33 h | time of maximal mean frequency of emesis, immediate phase [3, 6]: 2 h and 2 to 3 h | mealworms eaten vs control ([3]; CIS 10 mg/kg, day 1): ate significantly more | mealworms eaten vs control ([3]; CIS 10 mg/kg, day 2): ate significantly less | frequency of abdominal contractions vs vehicle ([3]; CIS 10 mg/kg, delayed phase): greater frequencies | frequency of dry emesis vs vehicle control ([3]; CIS 10 mg/kg, delayed phase): greater frequencies | total frequency of emesis vs vehicle control ([3]; CIS 10 mg/kg): significantly different | frequency of wet emesis vs control ([3]; CIS 10 mg/kg, immediate phase): significantly greater frequencies | time from which animals expired ([3]; CIS 20 mg/kg, i.p., post-CIS exposure): ≥ 30 h | mealworms eaten vs control ([3]; CIS 20 mg/kg, day 1): ate less | mealworms eaten vs control ([3]; CIS 20 mg/kg, day 2): ate significantly less | frequency of abdominal contractions vs vehicle ([3]; CIS 20 mg/kg, delayed phase): greater frequencies | mealworms eaten vs control ([3]; CIS 20 mg/kg, first night): ate significantly less | total frequency of emesis vs vehicle control ([3]; CIS 20 mg/kg): significantly different | frequency of dry vomiting vs vehicle control ([3]; CIS 20 mg/kg, immediate phase): significantly greater frequencies | frequency of wet emesis vs control ([3]; CIS 20 mg/kg, immediate phase): significantly greater frequencies | mean frequency of abdominal contractions vs vehicle ([3]; CIS 20 mg/kg, immediate phase): significantly greater | wet vomiting, dose effect ([3]; CIS 5-20 mg/kg, delayed phase): no significant dose effect
